From patent US20020049205A1, “Pyrazole antimicrobial agents” (priority 2000, published 2002)

Tests used:
S. au = assay: Minimum Inhibitory Concentration assay, S. au; assay type: cell-based; details: LB medium, 16 hours, 37° C.
Description: (§1) For Minimum Inhibitory Concentration (MIC) determinations for selected bacteria, log phase growing bacteria are re-suspended at 1×10^5 bacteria per mL in LB medium. The compound is added and two-fold dilutions are made. The final volume in the 96-well plate is about 100 μL. The plate is incubated at 37° C. in the dark with shaking. After 16 hours of incubation, growth is monitored by reading A600 or by visual inspection. MIC is defined as the minimum concentration of drug resulting in inhibition of visible growth of bacterial under the conditions described (above) in National Committee for Clinical Laboratory Standards 1993. Methods for dilution antimicrobial susceptibility tests for bacteria that grow aerobically. Approved standard M7-A3; National Committee for Clinical Laboratory Standards: Villanova, Pa.
as §1, with “MIC” for “Minimum Inhibitory Concentration (MIC)”

[1] = biological target: T1, Sigma^70 saturated E. coli RNA Polymerase (Escherichia coli, UniProt P0A7Z4+P0A800+P0A8T7+P0A8V2); assay: IC50 assay, inhibition of RNA polymerase; assay type: biochemical
T1 construct: purchased Epicenter
T1 sequence (P0A8V2 whole entry): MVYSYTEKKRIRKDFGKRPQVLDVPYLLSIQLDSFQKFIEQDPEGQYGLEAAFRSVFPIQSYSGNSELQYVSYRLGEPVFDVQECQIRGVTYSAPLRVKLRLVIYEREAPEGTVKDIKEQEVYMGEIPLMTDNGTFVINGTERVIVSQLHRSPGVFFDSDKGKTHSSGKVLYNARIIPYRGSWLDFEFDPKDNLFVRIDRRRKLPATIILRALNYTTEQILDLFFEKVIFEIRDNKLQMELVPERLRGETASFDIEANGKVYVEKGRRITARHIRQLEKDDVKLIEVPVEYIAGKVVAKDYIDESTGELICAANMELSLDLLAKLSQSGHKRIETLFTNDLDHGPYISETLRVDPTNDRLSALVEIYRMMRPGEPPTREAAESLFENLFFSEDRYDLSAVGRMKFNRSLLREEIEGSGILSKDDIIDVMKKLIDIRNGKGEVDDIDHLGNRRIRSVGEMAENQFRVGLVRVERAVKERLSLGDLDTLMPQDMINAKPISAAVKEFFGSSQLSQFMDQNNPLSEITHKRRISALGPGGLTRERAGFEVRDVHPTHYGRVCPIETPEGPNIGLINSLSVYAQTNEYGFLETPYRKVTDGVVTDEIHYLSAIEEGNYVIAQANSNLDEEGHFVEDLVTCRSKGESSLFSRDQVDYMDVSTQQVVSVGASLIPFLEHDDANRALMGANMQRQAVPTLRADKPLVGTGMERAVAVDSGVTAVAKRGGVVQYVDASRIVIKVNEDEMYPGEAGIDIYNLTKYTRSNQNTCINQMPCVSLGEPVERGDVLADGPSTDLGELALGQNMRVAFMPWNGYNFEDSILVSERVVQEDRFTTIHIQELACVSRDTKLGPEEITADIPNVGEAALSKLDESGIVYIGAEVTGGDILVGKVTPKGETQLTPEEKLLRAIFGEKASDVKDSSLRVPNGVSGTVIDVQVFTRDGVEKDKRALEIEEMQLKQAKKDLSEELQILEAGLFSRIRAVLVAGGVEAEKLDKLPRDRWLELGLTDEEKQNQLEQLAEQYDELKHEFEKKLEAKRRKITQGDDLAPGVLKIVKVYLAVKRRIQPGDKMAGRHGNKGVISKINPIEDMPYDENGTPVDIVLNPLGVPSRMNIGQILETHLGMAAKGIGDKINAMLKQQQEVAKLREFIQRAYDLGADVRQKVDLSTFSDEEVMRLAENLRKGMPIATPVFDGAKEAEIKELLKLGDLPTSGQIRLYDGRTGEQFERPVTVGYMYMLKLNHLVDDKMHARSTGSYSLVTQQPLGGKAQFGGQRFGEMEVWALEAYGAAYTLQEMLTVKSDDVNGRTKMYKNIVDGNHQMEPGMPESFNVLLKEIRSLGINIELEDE
T1 sequence (P0A8T7 whole entry): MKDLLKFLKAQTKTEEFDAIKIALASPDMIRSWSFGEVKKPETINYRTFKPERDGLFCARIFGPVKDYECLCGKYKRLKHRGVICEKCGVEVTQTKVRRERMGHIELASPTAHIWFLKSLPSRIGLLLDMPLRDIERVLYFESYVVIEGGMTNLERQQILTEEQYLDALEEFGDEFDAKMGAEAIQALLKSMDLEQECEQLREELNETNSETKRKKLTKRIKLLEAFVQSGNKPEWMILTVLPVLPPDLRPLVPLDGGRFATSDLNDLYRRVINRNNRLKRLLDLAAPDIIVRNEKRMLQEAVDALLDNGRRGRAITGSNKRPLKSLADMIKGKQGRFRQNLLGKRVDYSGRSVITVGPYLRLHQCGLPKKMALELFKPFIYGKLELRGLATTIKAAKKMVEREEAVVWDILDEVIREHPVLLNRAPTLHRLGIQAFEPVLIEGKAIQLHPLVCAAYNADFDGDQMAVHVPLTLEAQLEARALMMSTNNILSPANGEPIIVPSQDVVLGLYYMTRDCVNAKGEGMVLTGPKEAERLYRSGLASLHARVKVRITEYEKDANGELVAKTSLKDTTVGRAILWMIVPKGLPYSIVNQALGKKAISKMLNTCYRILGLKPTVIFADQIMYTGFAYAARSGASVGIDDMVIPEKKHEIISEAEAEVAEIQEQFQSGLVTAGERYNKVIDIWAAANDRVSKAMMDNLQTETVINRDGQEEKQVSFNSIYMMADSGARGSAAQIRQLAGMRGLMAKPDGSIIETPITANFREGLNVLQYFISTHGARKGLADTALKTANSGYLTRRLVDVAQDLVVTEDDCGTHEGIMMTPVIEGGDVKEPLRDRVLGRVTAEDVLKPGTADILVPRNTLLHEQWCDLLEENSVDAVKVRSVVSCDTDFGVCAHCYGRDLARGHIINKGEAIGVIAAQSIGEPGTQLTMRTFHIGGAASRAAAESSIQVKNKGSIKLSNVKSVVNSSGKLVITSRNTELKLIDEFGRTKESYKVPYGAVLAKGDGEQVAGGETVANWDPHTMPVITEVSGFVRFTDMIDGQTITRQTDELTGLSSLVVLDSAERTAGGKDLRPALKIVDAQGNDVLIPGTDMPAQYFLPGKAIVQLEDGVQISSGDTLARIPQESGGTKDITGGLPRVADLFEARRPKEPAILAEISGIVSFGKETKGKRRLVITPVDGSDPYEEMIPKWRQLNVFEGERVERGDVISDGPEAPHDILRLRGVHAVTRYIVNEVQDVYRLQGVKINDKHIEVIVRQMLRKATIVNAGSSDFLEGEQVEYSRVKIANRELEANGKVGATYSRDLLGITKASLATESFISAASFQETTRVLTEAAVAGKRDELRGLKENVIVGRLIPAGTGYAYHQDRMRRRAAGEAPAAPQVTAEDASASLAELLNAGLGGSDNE
T1 sequence (P0A7Z4 whole entry): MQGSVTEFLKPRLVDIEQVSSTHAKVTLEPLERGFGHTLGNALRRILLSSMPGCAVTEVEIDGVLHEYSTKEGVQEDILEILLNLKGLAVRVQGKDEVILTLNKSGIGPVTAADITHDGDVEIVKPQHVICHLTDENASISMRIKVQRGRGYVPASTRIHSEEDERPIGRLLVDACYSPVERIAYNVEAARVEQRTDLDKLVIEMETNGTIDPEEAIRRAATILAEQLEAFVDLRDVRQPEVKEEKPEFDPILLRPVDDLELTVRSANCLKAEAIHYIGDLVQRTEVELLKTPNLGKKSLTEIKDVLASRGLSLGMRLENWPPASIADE
T1 sequence (P0A800 whole entry): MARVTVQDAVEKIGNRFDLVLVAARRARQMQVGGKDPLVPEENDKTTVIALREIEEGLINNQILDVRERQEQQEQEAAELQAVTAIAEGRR
Description: One common assay involves evaluation of the compounds as RNA polymerase inhibitors. In this assay, buffer (250 mM KCl, 5% glycerol, 10 mM MgCl2, 0.1 mg/ml BSA) is combined with 6 mM β-M.E., PT5 DNA template, and 1.3 μg/rxn Sigma^70 saturated E. coli RNA Polymerase (Epicenter). The compound is then added in a manner not to exceed 5% DMSO. Nucleotide triphosphates are then added at the following concentration: 250 μM ATP, CTP and UTP with 100 μM cold CTP and 50 μM α-^32P CTP. The mixture is incubated for 10 min at about 37° C. A [2×] loading buffer is added and the mixture is then run on a 6% urea denaturing PAGE until bromophenol blue reaches the edge of plate. The gel is soaked (about 20 minutes in 10% MeOH and 10% acetic acid, to remove urea), then dried (about 55 minutes at about 85° C. (BioRad Gel Drier)) and exposed to a Phospho Imaging Plate for 1 hour. The plate is then read on a Fujix Bas1000 Imaging System and quantified using MacBas v2.0 software. An IC50 (in μM) can be calculated as the concentration of a drug which reduces the enzyme activity to 50% of the control.
In this assay, buffer (250 mM KCl, 5% Glycerol, 10 mM MgCl2, 0.1 mg/ml bovine serum albumin (BSA)) is combined with 6 mM β-mercaptoethanol, PT5 DNA template, and 1.3 μg/rxn Sigma^70 saturated E. coli RNA Polymerase (obtained from Epicenter). The compound is then added in a manner not to exceed 5% DMSO. Nucleotide triphosphates are then added at the following concentration: 250 μM ATP, CTP and UTP with 100 μM cold CTP and 50 μM α-32P CTP. The mixture is incubated for 10 min at about 37° C. A [2×] loading buffer is added and the mixture is then run on a 6% urea denaturing PAGE until bromophenol blue reaches the edge of plate. The gel is soaked (about 20 minutes in 10% MeOH and 10% acetic acid, to remove urea), then dried (about 55 minutes at about 85° C. (BioRad Gel Drier)) and exposed to a Phospho Imaging Plate for 1 hour. The plate is then read on a Fujix Bas1000 Imaging System and quantified using MacBas v2.0 software. An IC50 (in μM) can be calculated as the concentration of a compound of the invention that reduces the enzyme activity to 50% of the control. For the sake of clarity, the above-described assay is used to determine the IC50 values referenced in the claims. However, the skilled artisan will recognize that other methods can be used to determine an IC50 value.

B. su = assay: Minimum Inhibitory Concentration assay, B. su; assay type: cell-based; details: LB medium, 16 hours, 37° C.
Description: as §1
as §1, with “MIC” for “Minimum Inhibitory Concentration (MIC)”

E.c(tolC) = assay: Minimum Inhibitory Concentration assay, E.c(tolC); assay type: cell-based; details: 16 h, read-out: MIC (μM) E.c(tolC)
Description: as §1
as §1, with “MIC” for “Minimum Inhibitory Concentration (MIC)”

[2] = Table 1, compounds of Formula 1
[3] = Table 2, compounds of Formula 13

Row | Compound | MIC (S. au; Table 1) [µM] | IC50 [1, 2] [µM] | MIC (B. su; Table 1) [µM] | MIC (E.c(tolC)) [µM] | MIC (S. au; Table 2) [µM] | IC50 [1, 3] [µM] | MIC (B. su; Table 2) [µM] | MIC (S. au; Table 3) [µM] | IC50 ([1]; Table 3, heteroaryl compounds) [µM] | MIC (B. su; Table 3) [µM]
1 | Fc1ccc(-c2n[nH]cc2-c2ccc(NCCNCc3ccccc3)c(C(F)(F)F)c2)cc1 [Example 21] | < 500 | < 500 | < 500 | < 500 | – | – | – | – | – | –
2 | O=C(NCCNc1cc(-c2c[nH]nc2-c2ccc(F)cc2)cc(C(F)(F)F)c1)c1ccccc1 [Example 28] | < 500 | > 500 | < 500 | < 500 | – | – | – | – | – | –
3 | Clc1ccc(-c2[nH]ncc2-c2ccccc2)cc1 [Example 3] | > 500 | > 500 | > 500 | > 500 | – | – | – | – | – | –
4 | NS(=O)(=O)c1ccc(CCNc2ccc(-c3c[nH]nc3-c3ccc(F)cc3)cc2C(F)(F)F)cc1 [Example 22] | < 500 | < 500 | < 500 | < 500 | – | – | – | – | – | –
5 | Cc1ccc(-c2[nH]ncc2-c2ccccc2)cc1 [Example 5] | < 500 | > 500 | < 500 | < 500 | – | – | – | – | – | –
6 | CS(=O)(=O)Nc1ccc(CCNc2ccc(-c3c[nH]nc3-c3ccc(F)cc3)cc2C(F)(F)F)cc1 [Example 23] | > 500 | > 500 | > 500 | > 500 | – | – | – | – | – | –
7 | O=c1[nH][nH]c(-c2cccc(C(F)(F)F)c2)c1-c1ccccc1 [Example 14, 4-phenyl-5-(3-trifluoromethylphenyl)-1,2-dihydropyrazol-3-one] | – | – | – | < 500 | < 500 | < 500 | < 500 | – | – | –
8 | NCCNc1cc(-c2c[nH]nc2-c2ccc(F)cc2)cc(C(F)(F)F)c1 [Example 27] | < 500 | < 500 | < 500 | < 500 | – | – | – | – | – | –
9 | Clc1cccc(-c2[nH]ncc2-c2ccc(Cl)c(Cl)c2)c1 [Example 8] | < 500 | < 500 | < 500 | < 500 | – | – | – | – | – | –
10 | Clc1ccc(-c2[nH]ncc2-c2ccccc2)cc1Cl [Example 4] | < 500 | > 500 | < 500 | < 500 | – | – | – | – | – | –
11 | FC(F)(F)c1cc(-c2cn[nH]c2-c2ccccc2)ccc1Cl [Example 10] | < 500 | < 500 | < 500 | < 500 | – | – | – | – | – | –
12 | O=C(NCCNc1cc(-c2c[nH]nc2-c2ccc(F)cc2)cc(C(F)(F)F)c1)Nc1ccc(Cl)c(C(F)(F)F)c1 [Example 29] | < 500 | < 500 | < 500 | > 500 | – | – | – | – | – | –
13 | NCCCNc1cc(-c2c[nH]nc2-c2ccc(F)cc2)cc(C(F)(F)F)c1 [Example 30] | < 500 | > 500 | < 500 | < 500 | – | – | – | – | – | –
14 | O=C(Nc1ccc(Cl)c(C(F)(F)F)c1)NC1CCN(c2ccc(-c3c[nH]nc3-c3ccc(F)cc3)cc2C(F)(F)F)C1 (centres unmarked) [Example 25] | < 500 | < 500 | < 500 | > 500 | – | – | – | – | – | –
15 | O=[N+]([O-])c1cccc(-c2c[nH]nc2-c2ccc(N3CCCCC3)c(C(F)(F)F)c2)c1 [Example 33] | < 500 | < 500 | < 500 | > 500 | – | – | – | – | – | –
16 | O=C(NCCCNc1cc(-c2c[nH]nc2-c2ccc(F)cc2)cc(C(F)(F)F)c1)Nc1ccc(Cl)c(C(F)(F)F)c1 [Example 31] | < 500 | < 500 | < 500 | > 500 | – | – | – | – | – | –
17 | O=C(COc1ccccc1)Nc1cccc(-c2c[nH]nc2-c2ccc(F)c(C(F)(F)F)c2)c1 [Example 35] | < 500 | < 500 | > 500 | > 500 | – | – | – | – | – | –
18 | COc1cccc(-c2[nH]ncc2-c2ccccc2)c1 [Example 2] | < 500 | > 500 | < 500 | < 500 | – | – | – | – | – | –

Row | Compound | MIC (S. au; Table 1) [µM] | IC50 [1, 2] [µM] | MIC (B. su; Table 1) [µM] | MIC (E.c(tolC)) [µM] | MIC (S. au; Table 2) [µM] | IC50 [1, 3] [µM] | MIC (B. su; Table 2) [µM] | MIC (S. au; Table 3) [µM] | IC50 ([1]; Table 3, heteroaryl compounds) [µM] | MIC (B. su; Table 3) [µM]
19 | CS(=O)(=O)Nc1cccc(-c2c[nH]nc2-c2ccc(F)c(C(F)(F)F)c2)c1 [Example 36] | < 500 | < 500 | < 500 | < 500 | – | – | – | – | – | –
20 | NC1CCN(c2ccc(-c3c[nH]nc3-c3ccc(F)cc3)cc2C(F)(F)F)C1 (centres unmarked) [Example 24] | < 500 | < 500 | < 500 | < 500 | – | – | – | – | – | –
21 | Fc1ccc(-c2cn[nH]c2-c2cccc(Cl)c2)cc1C(F)(F)F [Example 11] | < 500 | > 500 | < 500 | < 500 | – | – | – | – | – | –
22 | Fc1ccc(-c2n[nH]cc2-c2cc(F)cc(C(F)(F)F)c2)cc1 [Example 26] | < 500 | < 500 | < 500 | < 500 | – | – | – | – | – | –
23 | Fc1ccc(-c2n[nH]cc2-c2ccc(F)c(C(F)(F)F)c2)cc1 [Example 18] | < 500 | < 500 | < 500 | < 500 | – | – | – | – | – | –
24 | O=c1[nH][nH]c(-c2ccc(Cl)cc2)c1-c1cccc(C(F)(F)F)c1 [Example 17, 5-(4-chlorophenyl)-4-(3-trifluoromethylphenyl)-1,2-dihydropyrazol-3-one] | – | – | – | < 500 | < 500 | < 500 | < 500 | – | – | –
25 | O=c1[nH][nH]c(-c2ccc(Cl)cc2)c1-c1ccccc1 [Example 15, 5-(4-chlorophenyl)-4-phenyl-1,2-dihydropyrazol-3-one] | – | – | – | < 500 | < 500 | > 500 | < 500 | – | – | –
26 | FC(F)(F)c1cc(-c2cn[nH]c2-c2cccc(Cl)c2)ccc1Cl [Example 9] | < 500 | < 500 | < 500 | < 500 | – | – | – | – | – | –
27 | COc1ccc(-c2[nH]ncc2-c2ccccc2)cc1 [Example 6] | < 500 | > 500 | < 500 | < 500 | – | – | – | – | – | –
28 | O=[N+]([O-])c1cccc(-c2c[nH]nc2-c2ccc(F)c(C(F)(F)F)c2)c1 [Example 32] | < 500 | < 500 | < 500 | > 500 | – | – | – | – | – | –
29 | FC(F)(F)c1cc(-c2cn[nH]c2-c2cccc(Cl)c2)ccc1N1CCCC1 [Example 12] | < 500 | > 500 | < 500 | < 500 | – | – | – | – | – | –
30 | CCNC1CCN(c2ccc(-c3c[nH]nc3-c3ccc(F)cc3)cc2C(F)(F)F)C1 (centres unmarked) [Example 19] | < 500 | < 500 | < 500 | < 500 | – | – | – | – | – | –
31 | Fc1ccc(-c2n[nH]cc2-c2ccc(NCCN3CCNCC3)c(C(F)(F)F)c2)cc1 [Example 20] | < 500 | < 500 | < 500 | < 500 | – | – | – | – | – | –
32 | Fc1cccc(-c2c[nH]nc2-c2ccsc2)c1 [Example 38] | – | – | – | < 500 | – | – | – | < 500 | < 500 | < 500
33 | Clc1cccc(-c2cn[nH]c2-c2ccc(Cl)c(Cl)c2)c1 [Example 7] | < 500 | > 500 | < 500 | < 500 | – | – | – | – | – | –
34 | Cc1c(-c2c[nH]nc2-c2ccc(F)cc2)sc2ccccc12 [Example 37] | – | – | – | < 500 | – | – | – | < 500 | < 500 | < 500
35 | Nc1cccc(-c2c[nH]nc2-c2ccc(F)c(C(F)(F)F)c2)c1 [Example 34] | < 500 | < 500 | < 500 | < 500 | – | – | – | – | – | –
